For data set [1], the target named is Delta-type opioid receptor (Mus musculus, UniProt P32300). Nature of the data set: Agonist activity at delta opioid receptor in mouse vas deferens. The class given is functional, tissue-based.
The target of data set [2] is Kappa-type opioid receptor (Cavia porcellus, UniProt P41144). Nature of the data set: Displacement of [3H]U-69593 from guinea pig brain kappa opioid receptor.
In data set [3] the target is Mu-type opioid receptor (Rattus norvegicus, UniProt P33535). Nature of the data set: Displacement of [3H]DAMGO from rat brain mu opioid receptor.
Data set [4] has as its target Delta-type opioid receptor (Rattus norvegicus, UniProt P33533). Nature of the data set: Displacement of [3H]DSLET from rat brain delta opioid receptor. Background: Displacement assays read how much labelled ligand stays bound in the presence of the test substance.
Data set [5] concerns the target Mu-type opioid receptor (Cavia porcellus, UniProt P97266). In words: Agonist activity at mu opioid receptor in guinea pig ileum. Type of data set: functional, tissue-based.
Data set [6] concerns Brain. Nature of the data set: Stability in rat brain membrane after 40 mins assessed as degradation by disulfide reductases. Type of data set: ADME, cell membranes.
For data set [7], the system named is Brain. Nature of the data set: Stability in rat brain membrane upto 24 hrs assessed as degradation by disulfide reductases. Type of data set: ADME, cell membranes.

Results on 7 molecules are retold here after ChEMBL document CHEMBL1142949, “Dicarba analogues of the cyclic enkephalin peptides H-Tyr-c[D-Cys-Gly-Phe-D(or L)-Cys]NH(2) retain high opioid activity” (J Med Chem, 2007).

Broadly, the IC50 is the concentration needed to halve the response being measured. High values mean lower potency, low ones higher potency. The term Ki denotes a measure of affinity in units of concentration, obtained from inhibition or displacement. A low value points to higher affinity.

Chain of Mu-type opioid receptor (Rattus norvegicus, UniProt P33535) (P33535 whole entry): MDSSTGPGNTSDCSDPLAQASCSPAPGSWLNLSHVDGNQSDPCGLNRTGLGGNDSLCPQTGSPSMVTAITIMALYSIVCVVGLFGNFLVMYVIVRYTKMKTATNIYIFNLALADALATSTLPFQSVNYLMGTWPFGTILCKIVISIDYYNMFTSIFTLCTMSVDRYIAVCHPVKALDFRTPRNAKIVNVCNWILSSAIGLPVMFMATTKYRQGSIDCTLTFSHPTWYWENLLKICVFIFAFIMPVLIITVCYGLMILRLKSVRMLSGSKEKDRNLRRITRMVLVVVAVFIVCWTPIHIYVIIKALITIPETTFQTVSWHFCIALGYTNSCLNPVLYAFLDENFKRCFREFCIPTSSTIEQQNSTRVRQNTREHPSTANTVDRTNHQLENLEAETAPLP
Chain of Delta-type opioid receptor (Mus musculus, UniProt P32300) (P32300 whole entry): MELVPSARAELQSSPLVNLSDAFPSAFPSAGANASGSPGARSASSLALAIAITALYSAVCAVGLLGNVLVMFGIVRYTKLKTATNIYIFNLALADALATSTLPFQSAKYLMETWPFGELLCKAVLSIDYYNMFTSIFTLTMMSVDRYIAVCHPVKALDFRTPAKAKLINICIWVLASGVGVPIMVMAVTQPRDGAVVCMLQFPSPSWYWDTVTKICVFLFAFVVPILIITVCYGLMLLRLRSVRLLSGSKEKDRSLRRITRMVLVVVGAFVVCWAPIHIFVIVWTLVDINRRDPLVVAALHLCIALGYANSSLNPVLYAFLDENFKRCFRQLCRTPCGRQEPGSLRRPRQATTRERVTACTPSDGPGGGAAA
Chain of Delta-type opioid receptor (Rattus norvegicus, UniProt P33533) (P33533 whole entry): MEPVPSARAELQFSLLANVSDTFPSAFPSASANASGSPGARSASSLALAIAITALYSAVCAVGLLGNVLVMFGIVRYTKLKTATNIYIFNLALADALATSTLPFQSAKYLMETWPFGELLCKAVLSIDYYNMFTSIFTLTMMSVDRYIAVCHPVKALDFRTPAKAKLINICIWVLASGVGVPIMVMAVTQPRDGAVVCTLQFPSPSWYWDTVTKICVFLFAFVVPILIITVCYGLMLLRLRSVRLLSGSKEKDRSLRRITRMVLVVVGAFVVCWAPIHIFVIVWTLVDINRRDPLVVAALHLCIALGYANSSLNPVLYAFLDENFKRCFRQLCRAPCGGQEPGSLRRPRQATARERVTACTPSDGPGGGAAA
Chain of Mu-type opioid receptor (Cavia porcellus, UniProt P97266) (P97266 whole entry): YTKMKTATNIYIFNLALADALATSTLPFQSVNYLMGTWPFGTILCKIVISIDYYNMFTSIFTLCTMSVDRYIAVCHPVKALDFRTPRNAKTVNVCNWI
Chain of Kappa-type opioid receptor (P41144 whole entry): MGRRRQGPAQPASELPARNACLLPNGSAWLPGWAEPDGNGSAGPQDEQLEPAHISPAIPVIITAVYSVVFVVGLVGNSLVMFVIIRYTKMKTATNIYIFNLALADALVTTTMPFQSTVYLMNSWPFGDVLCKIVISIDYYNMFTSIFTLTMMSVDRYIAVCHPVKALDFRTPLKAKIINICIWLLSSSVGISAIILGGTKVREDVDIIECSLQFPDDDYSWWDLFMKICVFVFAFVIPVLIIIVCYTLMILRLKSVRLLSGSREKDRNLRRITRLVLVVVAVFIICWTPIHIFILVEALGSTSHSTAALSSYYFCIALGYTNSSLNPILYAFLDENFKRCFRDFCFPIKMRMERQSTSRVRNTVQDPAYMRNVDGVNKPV

Consider `NC(=O)[C@H]1C/C=C/C[C@@H](NC(=O)[C@@H](N)Cc2ccc(O)cc2)C(=O)NCC(=O)N[C@@H](Cc2ccccc2)C(=O)N1`, for which the IC50 in data set [1] was 4.38 nM; on Mu-type opioid receptor [5] it was 5.63 nM. The inhibitory constant (Ki) in data set [2] worked out at 30.4 nM; at Mu-type opioid receptor [3], 1.05 nM; in data set [4], 1.92 nM.

`NC(=O)[C@@H]1C/C=C\C[C@@H](NC(=O)[C@@H](N)Cc2ccc(O)cc2)C(=O)NCC(=O)N[C@@H](Cc2ccccc2)C(=O)N1`: the IC50 stood at 0.496 nM in data set [1] and 1.81 nM on Mu-type opioid receptor [5]. Further, the Activity result with Brain [6] is reported as “Not Active”. Further, the Ki worked out at 200 nM in data set [2], 2.4 nM on Mu-type opioid receptor [3] and 6.55 nM in data set [4].

Take `NC(=O)[C@H]1CCCC[C@@H](NC(=O)[C@@H](N)Cc2ccc(O)cc2)C(=O)NCC(=O)N[C@@H](Cc2ccccc2)C(=O)N1`: the values for the IC50 (in data set [1]; at Mu-type opioid receptor [5]) were 3.64 nM and 11.2 nM, respectively. For the same molecule, the Ki in data set [2] is 71.5 nM; at Mu-type opioid receptor [3], 1.17 nM; in data set [4], 3.34 nM.

`NC(=O)[C@@H]1C/C=C/C[C@@H](NC(=O)[C@@H](N)Cc2ccc(O)cc2)C(=O)NCC(=O)N[C@@H](Cc2ccccc2)C(=O)N1`: the figures for the IC50 (in data set [1]; at Mu-type opioid receptor [5]) were 0.275 nM and 0.898 nM, respectively. For the same molecule, the Activity entry in the data set with Brain [6] is listed as “Not Active”. The Ki in data set [2] amounted to 57.6 nM; at Mu-type opioid receptor [3], 0.616 nM; in data set [4] it was 1.25 nM.

In the case of `NC(=O)[C@@H]1CSSC[C@@H](NC(=O)[C@@H](N)Cc2ccc(O)cc2)C(=O)NCC(=O)N[C@@H](Cc2ccccc2)C(=O)N1`, the Stability entry in the data set on Brain [7] is given as “Stable”. The Activity entry in the data set on Brain [6] is given as “Not Active”. For the same molecule, in data set [2], the Ki was determined as 40.1 nM.

Regarding `NC(=O)[C@H]1C/C=C\C[C@@H](NC(=O)[C@@H](N)Cc2ccc(O)cc2)C(=O)NCC(=O)N[C@@H](Cc2ccccc2)C(=O)N1`, the IC50 amounted to 9.91 nM in data set [1] and 11.9 nM on Mu-type opioid receptor [5]. Further, the inhibition constant (Ki) was 498 nM in data set [2], 2.27 nM at Mu-type opioid receptor [3] and 7.04 nM in data set [4].

Consider `NC(=O)[C@@H]1CCCC[C@@H](NC(=O)[C@@H](N)Cc2ccc(O)cc2)C(=O)NCC(=O)N[C@@H](Cc2ccccc2)C(=O)N1`, for which the figures for the concentration for half-maximal inhibition (IC50) (in data set [1]; on Mu-type opioid receptor [5]) were 3.19 nM and 1.02 nM, respectively. Further, the Activity result in the data set on Brain [6] is “Not Active”. Also, the figures for the Ki (in data set [2]; at Mu-type opioid receptor [3]; in data set [4]) were 309 nM, 2.34 nM and 5.87 nM, respectively.
